The text below walks through data of ChEMBL document CHEMBL1140113, “Structural requirements for drug inhibition of the liver specific human organic cation transport protein 1” (J Med Chem, 2008).

Broadly, the IC50 is the point on the concentration scale where inhibition reaches its midpoint. The term inhibition denotes how much of the control response was suppressed. Higher therefore signals a response far below the control. As usually defined, the Km is the concentration of substrate that gives half-maximal velocity.

Series [1] has as its target T1, Solute carrier family 22 member 1 (Homo sapiens, UniProt O15245).
T1 sequence (O15245 whole entry): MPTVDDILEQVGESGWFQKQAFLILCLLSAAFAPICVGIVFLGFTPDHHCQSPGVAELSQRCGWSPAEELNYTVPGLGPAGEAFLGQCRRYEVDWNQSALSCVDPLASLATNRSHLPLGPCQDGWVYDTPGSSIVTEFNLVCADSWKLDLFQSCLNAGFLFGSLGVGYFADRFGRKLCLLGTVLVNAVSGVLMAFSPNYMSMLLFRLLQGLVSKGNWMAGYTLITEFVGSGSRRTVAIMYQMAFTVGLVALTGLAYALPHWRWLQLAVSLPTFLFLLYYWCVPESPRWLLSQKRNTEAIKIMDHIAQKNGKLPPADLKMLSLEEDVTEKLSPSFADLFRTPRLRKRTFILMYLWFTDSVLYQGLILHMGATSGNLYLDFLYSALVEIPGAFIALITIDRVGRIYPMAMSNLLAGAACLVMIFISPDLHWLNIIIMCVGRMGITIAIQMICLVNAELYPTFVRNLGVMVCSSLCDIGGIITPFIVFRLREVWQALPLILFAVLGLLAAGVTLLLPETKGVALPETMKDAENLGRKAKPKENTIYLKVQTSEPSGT
The class given is cell-based, HEK293.

Series [2] has as its target T2, OCT1 (SLC22A1) (Homo sapiens, UniProt O15245).
T2 sequence (O15245 whole entry): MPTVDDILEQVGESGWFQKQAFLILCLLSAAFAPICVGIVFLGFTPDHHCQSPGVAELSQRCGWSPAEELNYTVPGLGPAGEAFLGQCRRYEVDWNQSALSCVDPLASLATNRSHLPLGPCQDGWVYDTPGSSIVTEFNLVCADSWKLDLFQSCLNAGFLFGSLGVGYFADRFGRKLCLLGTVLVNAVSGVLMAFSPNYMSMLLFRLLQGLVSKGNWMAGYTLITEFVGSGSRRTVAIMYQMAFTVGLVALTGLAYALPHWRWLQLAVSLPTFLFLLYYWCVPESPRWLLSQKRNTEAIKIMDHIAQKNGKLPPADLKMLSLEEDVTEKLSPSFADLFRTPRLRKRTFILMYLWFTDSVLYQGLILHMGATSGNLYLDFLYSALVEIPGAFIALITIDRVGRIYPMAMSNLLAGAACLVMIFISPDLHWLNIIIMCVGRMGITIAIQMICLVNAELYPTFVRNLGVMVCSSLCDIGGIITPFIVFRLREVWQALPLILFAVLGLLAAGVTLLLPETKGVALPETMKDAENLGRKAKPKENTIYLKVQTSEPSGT
The series can be described thus: Inhibition of 4-(4-(dimethylamino)styryl)-N-methylpyridinium uptake at human OCT1 expressed in HEK293 cells at 10 uM by confocal microscopy. The conditions noted are these: HEK293 cells that express human OCT1, probe 4-(4-(dimethylamino)styryl)-N-methylpyridinium. The class given is cell-based.

Series [3] addresses T2, OCT1 (SLC22A1). Kind of series: in vitro.
Substrate in series [4]: CC[N+](CC)(CC)CC
The series can be described thus: not read.

The mark [5] stands for this setting: HEK293 cells that express human OCT1, probe 4-(4-(dimethylamino)styryl)-N-methylpyridinium.

In turn, `COc1cc2nc(N3CCN(C(=O)c4ccco4)CC3)nc(N)c2cc1OC` [PRAZOSIN] returned a half-inhibitory concentration (IC50) in series [1] of 9.9 µM. The molecule also registered an inhibition at 10 µM in series [2] of 55.6%. The same molecule came in with an inhibition at 100 µM in series [3] (hek293) of 55.6%.

In series [1], `OCCN1CCN(CCCN2c3ccccc3Sc3ccc(C(F)(F)F)cc32)CC1` [FLUPHENAZINE] displayed a concentration for half-maximal inhibition (IC50) of 110 µM. For the same molecule, 100 µM produced 61.9% inhibition in series [3] (setting [5]).

In turn, `N=C(N)NC(=O)c1nc(Cl)c(N)nc1N` [AMILORIDE] showed an IC50 in series [1] of 57 µM. The molecule further gave an inhibition at 100 µM in series [3] (setting [5]) of 68.7%.

The molecule `CC(CN(C)C)CN1c2ccccc2CCc2ccccc21` (centres undefined) [TRIMIPRAMINE] yielded an IC50 in series [1] of 27.7 µM. In addition, the inhibition at 100 µM in series [3] (setting [5]) amounted to 77.2%.

On to `CN(C)CCC=C1c2ccccc2CCc2ccccc21` [AMITRIPTYLINE], for which the IC50 in series [1] was 16.9 µM. For the same molecule, the inhibition at 100 µM in series [3] (setting [5]) is 78.5%.

As for `Cc1nccn1CC1CCc2c(c3ccccc3n2C)C1=O` (centres undefined) [ONDANSETRON], the IC50 in series [1] came to 20.4 µM. The molecule further gave an inhibition at 100 µM in series [3] (hek293) of 63.8%.

B1: Solute carrier family 22 member 1 (Homo sapiens) (protein)
chain: MPTVDDILEQVGESGWFQKQAFLILCLLSAAFAPICVGIVFLGFTPDHHCQSPGVAELSQRCGWSPAEELNYTVPGLGPAGEAFLGQCRRYEVDWNQSALSCVDPLASLATNRSHLPLGPCQDGWVYDTPGSSIVTEFNLVCADSWKLDLFQSCLNAGFLFGSLGVGYFADRFGRKLCLLGTVLVNAVSGVLMAFSPNYMSMLLFRLLQGLVSKGNWMAGYTLITEFVGSGSRRTVAIMYQMAFTVGLVALTGLAYALPHWRWLQLAVSLPTFLFLLYYWCVPESPRWLLSQKRNTEAIKIMDHIAQKNGKLPPADLKMLSLEEDVTEKLSPSFADLFRTPRLRKRTFILMYLWFTDSVLYQGLILHMGATSGNLYLDFLYSALVEIPGAFIALITIDRVGRIYPMAMSNLLAGAACLVMIFISPDLHWLNIIIMCVGRMGITIAIQMICLVNAELYPTFVRNLGVMVCSSLCDIGGIITPFIVFRLREVWQALPLILFAVLGLLAAGVTLLLPETKGVALPETMKDAENLGRKAKPKENTIYLKVQTSEPSGT
B1: the Km in series [4] stood at 2.32 µM.
